From patent US4839358A, “Alpha-mercaptomethyl-benzene propanamides, pharmaceutical compositions and use” (Roussel Uclaf, priority 1987, dated 1989)

Experiments:
[1] = target: T1, Enkephalinase (Rattus norvegicus, UniProt P07861); experiment: Determination of the Inhibiting Effect of Enkephalinase (hydrolysis of succinyl-Ala-Ala-Phe-amino-methylcoumarine, fluorescence); assay type: biochemical; details: rat renal membrane; substrate 40 μM; pH 7.5; 37° C., 30 minutes; read-out: IC50 (concentration which inhibits the hydrolysis of the substrate by 50%)
T1 construct: from tissue; host or cells: rat kidney membranes (15,000 g particulate fraction, solubilised with octyl beta-D-glucopyranoside, 100,000 g supernatant)
T1 sequence (P07861 1-750): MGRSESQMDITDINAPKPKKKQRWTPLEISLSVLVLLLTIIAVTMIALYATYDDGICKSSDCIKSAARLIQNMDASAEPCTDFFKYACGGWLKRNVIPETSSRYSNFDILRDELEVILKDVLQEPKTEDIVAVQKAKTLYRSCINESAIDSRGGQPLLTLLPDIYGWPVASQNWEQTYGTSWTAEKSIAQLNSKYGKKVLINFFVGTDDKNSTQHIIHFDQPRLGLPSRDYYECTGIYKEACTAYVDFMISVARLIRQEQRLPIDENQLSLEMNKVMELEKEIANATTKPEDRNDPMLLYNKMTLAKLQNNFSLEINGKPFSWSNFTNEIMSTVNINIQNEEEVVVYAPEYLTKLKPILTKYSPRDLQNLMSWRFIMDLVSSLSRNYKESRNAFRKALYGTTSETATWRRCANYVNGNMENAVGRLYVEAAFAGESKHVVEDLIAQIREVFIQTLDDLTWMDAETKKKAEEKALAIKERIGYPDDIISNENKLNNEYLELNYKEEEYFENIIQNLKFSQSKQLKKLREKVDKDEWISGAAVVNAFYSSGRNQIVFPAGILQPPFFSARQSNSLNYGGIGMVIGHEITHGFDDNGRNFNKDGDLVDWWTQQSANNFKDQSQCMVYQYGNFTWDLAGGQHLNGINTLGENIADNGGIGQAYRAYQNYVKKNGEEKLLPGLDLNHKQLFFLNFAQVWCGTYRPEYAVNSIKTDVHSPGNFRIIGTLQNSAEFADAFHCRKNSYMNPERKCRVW
Experimental: The activity of enkephalinase was determined starting with a piece of renal membrane of a rat. The kidneys were removed on ice and homogenized in HEPES 0.05M buffer pH 7.5 containing magnesium chloride (50 times the volume). After a first centrifuging at 1,500 g, the particular fraction was obtained after centrifuging at 15,000 g for 20 minutes. The residue was then washed and suspended in HEPES buffer and kept at -20 C. A part of this membrane preparation was placed in the presence of octyl β-D-glucopyranoside (50 mM in final centrifuging) for 15 minutes 15 4° C. After centrifuging at 100,000 g for one hour, the supernatant was removed and frozen by aliquots at -20° C. The concentration in proteins was determined by the method with Comassie blue.
An aliquot of the protein fraction so prepared was pre-incubated at 25° C. for 10 minutes in HEPES 0.05M buffer pH 7.5 or in the presence of the test product. The substrate added was a non-natural enkephaline of the formula succinyl-Ala-Ala-Phe-amino-methylcoumarine (reference 1) (40 μM in final concentration): the incubation was continued at 37° C. for 30 minutes. The reaction was stopped by heating to 95° C. for 5 minutes and each incubate was centrifuged. A solution of aminopeptidase M (4 μM in final concentration) and of thiorphan (reference 2) (10^-5 M) was added to the supernatant and the mixture was taken to 37° C. for one hour. The reaction was stopped as previously described and the fluorescence of the 7-aminomethylcoumarineso produced was determined. The effect of the products under test was detemined by calculating the IC50 as the concentration which inhibits the hydrolysis of the substrate by 50%.

[2] = Analgesic activity: Stretching Caused by Acetic Acid in Mice; assay type: in vivo; details: Mus musculus, 0.5 h; oral, half-an-hour before 1% acetic acid 10 ml/kg intraperitoneal; 15 minutes observation; read-out: AD50 (active dose which enabled a reduction of 50% of the number of stretchings as compared with control animals)
Experimental: The test used was based on the fact reported by R. KOSTER et al [Fed. Proc. (1959), Vol. 18, p. 412] in which the intraperitoneal injection of acetic acid caused in mice repeated stretching and twisting movements which can persist for more than 6 hours. The analgesics prevent or diminish this syndrome which can be considered as the exteriorization of a diffuse abdominal pain. A 1% solution of acetic acid in water was used, administered at a rate of 10 ml/kg. The product studied was administered by oral route half-an-hour before injection of the acetic acid, the mice being without food for a minimum 6 hours. The stretchings were observed and counted for each mouse for an observation period of 15 minutes. The results were expressed as the AD50, that is to say, the active dose which enabled a reduction of 50% of the number of stretchings as compared with control animals. The AD50 found for the compound of Example 2 was 80 mg/kg.

[3] = Test of Anti-depressive Activity (duration of immobility, forced swimming); assay type: in vivo, Sprague Dawley rats; details: 20 mg/kg × 3, oral 24, 5 and 1 hour before test
Experimental: The tests were carried out on groups of 5 Sprague Dawley rats and the inexperienced animals were placed for 15 minutes in a vertical perspex cylinder (diameter: 18 cm, height: 40 cm) containing water at 25° C. to a height of 15 cm (initial swimming test). They were then dried for 15 minutes in an enclosure heated to 32° C. 24 hours later, they were replaced in the cylinder filled with water and the total duration of immobility was measured for 5 minutes. The compound was administered orally successively 24, 5 and 1 hour before the test. The first administration took place immediately after the initial swimming test, just before replacing the animals in their breeding box. The average of the groups treated were compared with those of the control group by the Dunnett test.

SMILES	IC50 [1] [nM]	ED50 [2] [mg/kg]	Duration of immobility ([3]; 5 minutes measured, control 232 ± 7) [s]	Duration of immobility, % variation ([3]; versus control group) [%]
O=C(NN1CCCCCC1)C(CS)Cc1ccccc1 (stereo not drawn) [Example 8, N-(hexahydro-1H-azepinyl)-α-(mercaptomethyl)-benzene propanamide]	390			
O=C(NN1CCOCC1)C(CS)Cc1ccccc1 (stereo not drawn) [Example 2, α-mercaptomethyl-N-(4-morpholinyl)-benzene propanamide]	220	80	138 ± 20	-41
O=C(NN1CCCC1)C(CS)Cc1ccccc1 (stereo not drawn) [Example 10, α-mercaptomethyl-N-(1-pyrrolidinyl)-benzene propanamide]	71			
O=C(NN1CCSCC1)C(CS)Cc1ccccc1 (stereo not drawn) [Example 12, α-mercaptomethyl-N-(tetrahydro-2H-1,4,-thiazin-4-yl)-benzene propanamide]	350			
